This passage reports EC50 results from patent US20240173372A1 (IMDpharm Inc., priority 2021, published 2024).

The term EC50 denotes the concentration that produces a half-maximal response.

Converted amounts (≈) assume the structure as drawn.

The test system of the experiment is House Ear Institute-Organ of Corti 1 (HEI-OC1) auditory hair cell. Briefly: Apoptosis inhibitory effect on auditory cell line treated with hydrogen peroxide (MTT analysis). In kind it is cell-based, mice. As to conditions: Mus musculus, HEI-OC1, 100 μM hydrogen peroxide, read-out: EC50 (apoptosis inhibitory effect, hair cells). Here is the method: House Ear Institute-Organ of Corti 1 (HEI-OC1), an auditory hair cell derived from the Organ of Corti which is the auditory generation organ in mice, was cultured in an incubator at 33° C. in the presence of 10% CO2 using DMEM (high-glucose Dulbecco's Eagle's medium, Sigma-Aldrich Co., St. Louis, USA) culture including 10% fetal bovine serum (FBS; WELGENE Inc., Gyeongsangbuk-do, Korea) and 50 U/mL INF-γ (Peprotech Inc., Seoul, Korea) without addition of antibiotics. In order to generate reactive oxygen species (ROS) caused by oxidative stress that occurs in the process of inducing noise induced hearing loss, cell lines with noise induced hearing loss were established by treating hydrogen peroxide.

For `COc1cccc(CCc2ccccc2OCC(CN(C)C)OC(=O)CCC(=O)O)c1` (single isomer, unassigned; (-)) [sarpogrelate, (−)-4-[1-dimethylamino-3-[2-[2-(3-methoxyphenyl)ethyl]phenoxy]propan-2-yl]oxy-4-oxobutanoic acid], the EC50 was 26.4 µg/mL (≈ 61.5 µM).
